From patent publication US9457016B2, “Methods for treating polycystic kidney disease” (New York University, priority 2013, dated 2016)

What was measured:
[1] = tested on: ADPKD cells; test: Seahorse analysis of ATP production and mitochondrial oxygen consumption; format: cell-based, human
Procedure: FIG. 13A-B. Seahorse analysis of ADPKD cells. ADPKD cells that were unstimulated or stimulated with forskolin in the presence or absence of BPTES and mitochondrial oxygen consumption was determined by seahorse analysis. (A) Schematic of the method and analysis. Oligomycin inhibits ATP synthase. FCCP is a mitochondrial uncoupler and leads to maximal OCR and rotenone interferes with electron transport. (B) Inhibition of ATP generation was also found by Seahorse analysis. ADPKD cells were unstimulated in the absence (C) or presence of BAPTES (B) or stimulated with forskolin in the absence (F) or presence of BPTES (FB).
The decreased generation of α-ketoglutarate, which feeds directly into tricarboxylic acid (TCA) would be predicted to lead to decreased TCA intermediates required for mitochondrial respiration and ATP generation. Seahorse analysis (Seahorse Biosciences) was performed on ADPKD cells that were either unstimulated or stimulated with forskolin in the presence or absence of BPTES.

[2] = tested on: ADPKD cells; test: Intracellular ATP levels; format: cell-based, human; settings: 24 hours
Text: α-ketoglutarate also feeds directly into the tricarboxylic acid (TCA) cycle and therefore metabolism of α-ketoglutarate is an important source of ATP from glutamine.

[3] = tested on: ADPKD cells; test: Cyst formation of ADPKD cells plated in collagen, forskolin stimulated; format: cell-based, human
Procedure: FIG. 1. […] Images are at 10×. BF=bright field.
FIG. 2. Quantification of cyst size and cyst number in ADPKD cells incubated with or without BPTES. Total number of cysts in FIG. 1 was counted and stratified by cyst size. Asterisks indicate statistically significant findings.
FIG. 10. siRNA to Gls1 inhibits cyst formation of ADPKD cells. ADPKD cells were transfected with a control or siRNA to Gls1 and cyst formation was assessed. Number of cysts in control (blue), siRNA transfected cells (green), or siRNA transfected cells cultured with dimethyl α-ketoglutarate (red).
FIG. 10 depicts results from experiments using siRNA to Gls1 to determine the effects of same on cyst formation of ADPKD cells. […] The following are exemplary siRNA sequences used for inhibition of Gls1 […] (SEQ ID NO: 1); SASI_Hs01_00071573-[…][dT][dT] (SEQ ID NO: 2); 2260 NM_014905-[…] (SEQ ID NO: 3); SASI_Hs01_00071574-[…][dT][dT] (SEQ ID NO: 4); 1081 NM_014905-[…] (SEQ ID NO: 5).
The present inventors have made the surprising discovery that inhibiting glutaminase 1 (gls1) blocks cyst formation and proliferation by ADPKD cells. […] ADPKD cells were plated in collagen and stimulated with the cyclic 3′-5′-adenosine monophosphate (cAMP) agonist forskolin. […] The results are depicted graphically in FIG. 2, wherein the data were stratified according to both the number of observable cysts and their size.

[4] = tested on: mTor; test: mTOR activation by anti-phospho-S6 immunoblot after amino acid refeeding; format: cell-based, human; settings: ADPKD cells refed glutamine and lysine 30 or 60 minutes after 3 hours amino acid deprivation
Procedure: FIG. 14. […] Cells were then lysed and mTOR activation was assessed by immunoblotting with anti-phospho-S6 antibodies (pS6). To control for loading, the same samples were immunoblotted with antibodies to actin (Actin).

[5] = tested on: PKD1^flox/flox; Tamoxifen-Cre mice; format: in vivo; settings: BPTES 12.5 mg/kg IP BID, postnatal day 15-32, N=4, vs vehicle control
Procedure: FIG. 12A-C. […] Mice were sacrificed on day 32 and analyzed. (A) Scan of sagittal section of littermates treated with BPTES or vehicle control; (B) Kidney wt/body wt; (C) cystic index.
Cre recombinase was induced on postnatal day 10 by administering tamoxifen (10 mg/40 g) intraperitoneally (IP) on two consecutive days. […] Only same sexed mice from same litters were compared.
Early Models. PKD1^flox/flox; Tamoxifen-Cre Mice: The present inventors obtained the tamoxifen-Cre mouse model from G. Germino. For early onset disease, Cre recombinase is induced at day 10 by administering tamoxifen (10 mg/40 g) intraperitoneally (IP) on 2 consecutive days as described in FIG. 12 above and in Piontek et al. (2007, Nature medicine, 13: 1490-1495; the entire content of which is incorporated herein by reference).

[6] = tested on: Pkd1^fl/fl; Pkhd1-Cre mice; test: Pkd1fl/fl; Pkhd1-Cre mouse model of ADPKD; format: in vivo
Text: As described in Karihaloo et al. (2011, J Am Soc Nephrol 22: 1809-1814), Pkd1^fl/fl; Pkhd1-Cre mice may be generated by crossing Pkd1fl/fl mice with Pkhd1-Cre mice13 so as to achieve kidney-specific deletion of the Pkd1 allele. See also Shibazaki et al. (2008, Hum Mol Genet 17, 1505-1516) and Patel et al. (2008, Hum Mol Genet 17, 1578-1590). The entire content of each of Karihaloo et al., Shibazaki et al., and Patel et al. is incorporated herein by reference.
Pkhd-Cre Mice: This is a very robust and reproducible early model of PKD. The Somlo lab has shown that Pkhd-cre expresses and deletes predominantly in collecting tubules Ma et al. (2013, Nature genetics, 45: 1004-1012; the entire content of which is incorporated herein by reference).

[7] = tested on: mTor; test: Recruitment of mTor to lysosome, immunofluorescence with LAMP; format: cell-based, human; settings: ADPKD cells refed with amino acids (QL)
Text: (A) Schematic depicting mTor activation, which is mediated by the recruitment of mTor to the lysosome. (B) ADPKD cells were stimulated as in FIG. 14 and then subjected to immunofluorescence analysis with antibodies to LAMP (lysosomal associated membrane protein) which stains lysosomes and mTor. Co-localization is shown by a yellow signal following the merging of the green mTor signal and the red LAMP signal. Refeeding with amino acids (QL) led to colocalization or recruitment of mTor to the lysosome as manifested by yellow staining in the merged image (compare −QL with +QL), which was abolished by treatment with BPTES.

[8] = biological target: T1, GLS1 (Homo sapiens, UniProt O94925); settings: dimeric vs tetrameric GLS1; cited from earlier work
T1 sequence (O94925 55-669): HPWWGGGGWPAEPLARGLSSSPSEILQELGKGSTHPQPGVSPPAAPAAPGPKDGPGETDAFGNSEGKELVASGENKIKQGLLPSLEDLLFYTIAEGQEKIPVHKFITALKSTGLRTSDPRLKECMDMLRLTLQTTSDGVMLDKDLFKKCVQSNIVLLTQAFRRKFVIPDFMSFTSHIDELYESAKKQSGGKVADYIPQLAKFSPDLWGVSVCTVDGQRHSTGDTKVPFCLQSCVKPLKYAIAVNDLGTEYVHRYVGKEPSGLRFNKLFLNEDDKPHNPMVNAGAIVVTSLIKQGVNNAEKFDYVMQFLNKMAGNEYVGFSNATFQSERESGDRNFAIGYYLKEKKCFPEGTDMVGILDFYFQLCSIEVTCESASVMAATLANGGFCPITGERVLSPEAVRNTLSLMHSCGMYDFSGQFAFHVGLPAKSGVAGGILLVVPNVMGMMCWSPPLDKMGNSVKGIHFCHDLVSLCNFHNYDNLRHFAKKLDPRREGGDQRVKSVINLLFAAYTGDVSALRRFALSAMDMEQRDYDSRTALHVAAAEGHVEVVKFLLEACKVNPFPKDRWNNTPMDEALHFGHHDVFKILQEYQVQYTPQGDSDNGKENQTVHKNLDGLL

[9] = cited from earlier work
[10] = tested on: ADPKD cells; test: Forskolin-induced proliferation, MTT assay; format: cell-based, human; settings: co-culture of ADPKD cells with α-ketoglutarate
Procedure: FIG. 3. […] Proliferation was then quantitated 24 hours later using the MTT assay kit (Promega).
Elevated intracellular concentration of cAMP is characteristic of ADPKD cells in vivo and mediates activation of signaling pathways that lead to proliferation of ADPKD cells. Gls1 is also critical for proliferation of ADPKD cells.

[11] = tested on: ADPKD cells; test: 8-bromo-cAMP stimulated proliferation, MTT assay; format: cell-based, human; settings: 8-bromo-cAMP + BPTES
[12] = ADPKD cells in collagen, forskolin, cultured 2 weeks with or without BPTES
[13] = BPTES 12.5 mg/kg IP QOD, postnatal day 10-24, vs vehicle control

With `O=C(Cc1ccccc1)Nc1nnc(CCSCCc2nnc(NC(=O)Cc3ccccc3)s2)s1` [BPTES] the “basal and forskolin stimulated ATP production” value [1] was “inhibited”, the “basal and forskolin stimulated mitochondrial O2 consumption” value [1] was “inhibited” and the “intracellular ATP levels” value [2] was “significant decrease”. For the same compound, the number of cysts [3, 12] was “markedly reduces the number of cysts”, the size of cysts [3, 12] was “profoundly decreases the size of those cysts that are formed” and the “mTor activation (pS6)” value [4] was “inhibits mTor activation”. The cyst growth [5] was “statistically significant inhibition of cyst growth”, the cyst volume [6, 13] was “significantly decreased” and the kidney size [6, 13] was “significantly decreased”. The kidney function ([6]; following BPTES administration) was “some preservation/restoration of kidney function was observed” and the “colocalization or recruitment of mTor to the lysosome” value [7] was “abolished”.
In the case of `CN(C)c1ccc(C2Nc3ccc4ccccc4c3C3=C2C(=O)CC(C)(C)C3)cc1Br` (stereo not shown) [compound 968, 5-(3-bromo-4-(dimethylamino)phenyl)-2,2-dimethyl-2,3,5,6-tetrahydrobenzo[a]phenanthridin-4(1H)-one], the “inhibition of GLS1 oligomeric forms” value [8] is listed as “only inhibits the nonactivated dimeric GLS1 and not the active tetramer” and the aqueous solubility [9] is listed as “poor aqueous solubility”.
In the case of `COC(=O)CCC(=O)C(=O)OC` [dimethyl α-ketoglutarate], the “reversal of BPTES inhibition of proliferation” value [10] is reported as “reversed the inhibition of proliferation by BPTES”, the “rescue of cyst formation in siRNA transfected cells” value ([3]; dimethyl α-ketoglutarate added to the medium) is reported as “statistically significant rescue of cyst formation” and the “rescue of BPTES inhibition of proliferation” value [11] is reported as “rescued the inhibition of proliferation”.
